Here are results for 36 compounds from patent US11780839B2, “Compounds for treating Huntington's disease” (PTC THERAPEUTICS, INC., priority 2018, dated 2023).

Molecules are shown by their SMILES. pIC50: −log10 of the molar value. Some results are limits rather than exact numbers.

For the test, the system named is Endogenous Huntingtin Protein. Description: Endogenous Huntingtin Protein Assay (ELISA-based Meso Scale Discovery electrochemiluminescence). In kind it is cell-based. As to conditions: MSD electrochemiluminescence, Table 1. An outline of the steps:
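Huntingtin was captured overnight at 4 °C on plates coated with 1 μg/mL MW1 (polyQ-expanded) or MAB2166 antibody and BSA-blocked. Detection used a rabbit monoclonal and then a SULFO-TAG goat anti-rabbit antibody (0.25 μg/mL, 1 h each, room temperature). Signal was read by electrochemiluminescence.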
In general terms: In an ELISA, binding on a coated surface is turned into a signal by an enzyme label.
As to `C[C@@H]1CN(c2ncc(-c3ccc(-c4ccc5nccn5n4)cc3O)nn2)C[C@H](C)N1` [Cpd 385, 2-{3-[(3R,5S)-3,5-dimethylpiperazin-1-yl]-1,2,4-triazin-6-yl}-5-(imidazo[1,2-b]pyridazin-6-yl)phenol], the negative logarithm of the IC50 (pIC50) (as a rule, −log10 of the IC50, conventionally taken in molar units) was no less than 7.00.
On to `Oc1cc(-c2cn[nH]c2)ccc1-c1cnc(N2CCC(CNC3CCCC3)C2)nn1` (stereo not drawn) [Cpd 386, 2-(3-{3-[(cyclopentylamino)methyl]pyrrolidin-1-yl}-1,2,4-triazin-6-yl)-5-(1H-pyrazol-4-yl)phenol], for which the pIC50 is 6.30 to 7.00.
The same measure for `Oc1cc(-c2cn[nH]c2)ccc1-c1cnc(N2CCC(C3CCCN3)C2)nn1` (stereo not drawn) [Cpd 387, 2-[3-([2,3’-bipyrrolidin]-l’-yl)-1,2,4-triazin-6-yl]-5-(1H-pyrazol-4-yl)phenol]: no less than 7.00; for `Oc1cc(-c2cn[nH]c2)ccc1-c1cnc(N2CCC(CNCc3ccccn3)C2)nn1` (stereo not drawn) [Cpd 388, 5-(1H-pyrazol-4-yl)-2-{3-[-({[(pyridin-2-yl)methyl]amino}methyl)pyrrolidin-1-yl]-1,2,4-triazin-6-yl}phenol]: no less than 7.00; for `Cn1cc(-c2ccc(-c3cnc(N4CCC(C)(N)C4)nn3)c(O)c2)cn1` (stereo not drawn) [Cpd 389, 2-[3-(3-amino-3-methylpyrrolidin-1-yl)-1,2,4-triazin-6-yl]-5-(1-methyl-1H-pyrazol-4-yl)phenol]: no less than 7.00.
In the case of `CC(C)(C)NCC1CCN(c2ncc(-c3ccc(-c4cn[nH]c4)cc3O)nn2)C1` (stereo not drawn) [Cpd 390, 2-(3-{3-[(tert-butylamino)methyl]pyrrolidin-1-yl}-1,2,4-triazin-6-yl)-5-(1H-pyrazol-4-yl)phenol], the negative logarithm of the IC50 (pIC50) was no less than 7.00.
`CC1(NCC2CCN(c3ncc(-c4ccc(-c5cn[nH]c5)cc4O)nn3)C2)CCOCC1` (stereo not drawn) [Cpd 391, 2-[3-(3-{[(4-methyloxan-4-yl)amino]methyl}pyrrolidin-1-yl)-1,2,4-triazin-6-yl]-5-(1H-pyrazol-4-yl)phenol] had a negative-log IC50 (pIC50) of no less than 7.00.
For `Oc1cc(-c2cn[nH]c2)ccc1-c1cnc(N2CCC(CNC3CC3)C2)nn1` (stereo not drawn) [Cpd 392, 2-(3-{3-[(cyclopropylamino)methyl]pyrrolidin-1-yl}-1,2,4-triazin-6-yl)-5-(1H-pyrazol-4-yl)phenol], the pIC50 is no less than 7.00.
`CN(c1cnc(-c2ccc(-c3ccccn3)cc2O)nn1)C1CC(C)(C)NC(C)(C)C1` [Cpd 393, 2-{6-[methyl(2,2,6,6-tetramethylpiperidin-4-yl)amino]-1,2,4-triazin-3-yl}-5-(pyridin-2-yl)phenol] gave a pIC50 of no less than 7.00.
Turning to `CN(c1cnc(-c2ccc(-c3ccc4c(cnn4C)n3)cc2O)nn1)C1CC(C)(C)NC(C)(C)C1` [Cpd 394, 5-(1-methyl-1H-pyrazolo[4,3-b]pyridin-5-yl)-2-{6-[methyl(2,2,6,6-tetramethylpiperidin-4-yl)amino]-1,2,4-triazin-3-yl}phenol], the pIC50 was no less than 7.00.
As to `Oc1cc(-c2cn[nH]c2)ccc1-c1cnc(N2CCC(CNC3CCOC3)C2)nn1` (stereo not drawn) [Cpd 395, 2-[3-(3-{[(oxolan-3-yl)amino]methyl}pyrrolidin-1-yl)-1,2,4-triazin-6-yl]-5-(1H-pyrazol-4-yl)phenol], the negative-log IC50 (pIC50) was no less than 7.00.
In turn, `CC1(C)CC(Nc2cnc(-c3ccc(-c4cn[nH]c4)cc3O)nn2)CC(C)(C)N1` [Cpd 396, 5-(1H-pyrazol-4-yl)-2-{6-[(2,2,6,6-tetramethylpiperidin-4-yl)amino]-1,2,4-triazin-3-yl}phenol] had a negative logarithm of the IC50 (pIC50) of no less than 7.00.
For `Oc1cc(-c2cn[nH]c2)ccc1-c1cnc(N2CC[C@@H](CNC3CCOCC3)C2)nn1` [Cpd 397, 2-{3-[(3S)-3-{[(oxan-4-yl)amino]methyl}pyrrolidin-1-yl]-1,2,4-triazin-6-yl}-5-(1H-pyrazol-4-yl)phenol], the negative logarithm of the IC50 (pIC50) is no less than 7.00.
The same measure for `Oc1cc(-c2cn[nH]c2)ccc1-c1cnc(N2CC[C@H](CNC3CCOCC3)C2)nn1` [Cpd 398, 2-{3-[(3R)-3-{[(oxan-4-yl)amino]methyl}pyrrolidin-1-yl]-1,2,4-triazin-6-yl}-5-(1H-pyrazol-4-yl)phenol]: no less than 7.00; for `Oc1cc(-c2cn[nH]c2)ccc1-c1cnc(N2CC[C@@H](NC3CCC3)C2)nn1` [Cpd 399, 2-{3-[(3R)-3-(cyclobutylamino)pyrrolidin-1-yl]-1,2,4-triazin-6-yl}-5-(1H-pyrazol-4-yl)phenol]: no less than 7.00.
Regarding `Oc1cc(-c2cn[nH]c2)ccc1-c1cnc(N2CC[C@H](NC3CCC3)C2)nn1` [Cpd 400, 2-{3-[(3S)-3-(cyclobutylamino)pyrrolidin-1-yl]-1,2,4-triazin-6-yl}-5-(1H-pyrazol-4-yl)phenol], the negative logarithm of the IC50 (pIC50) is no less than 7.00.
Take `CC1(C)CC(Nc2cnc(-c3ccc(-n4nccn4)cc3O)nn2)CC(C)(C)N1` [Cpd 401, 2-{6-[(2,2,6,6-tetramethylpiperidin-4-yl)amino]-1,2,4-triazin-3-yl}-5-(2H-1,2,3-triazol-2-yl)phenol]: the negative-log IC50 (pIC50) is no less than 7.00.
`CN(c1cnc(-c2ccc(-c3ncccn3)cc2O)nn1)C1CC(C)(C)NC(C)(C)C1` [Cpd 402, 2-{6-[methyl(2,2,6,6-tetramethylpiperidin-4-yl)amino]-1,2,4-triazin-3-yl}-5-(pyrimidin-2-yl)phenol] had a pIC50 of no less than 7.00.
The same measure for `Oc1cc(-c2cn[nH]c2)ccc1-c1cnc(N2CCC(CNC3CCOCC3F)C2)nn1` (stereo not drawn) [Cpd 403, 2-[3-(3-{[(3-fluorooxan-4-yl)amino]methyl}pyrrolidin-1-yl)-1,2,4-triazin-6-yl]-5-(1H-pyrazol-4-yl)phenol]: no less than 7.00; for `Oc1cc(-c2cn[nH]c2)ccc1-c1cnc(N2CCC(CNC3CCCOC3)C2)nn1` (stereo not drawn) [Cpd 404, 2-[3-(3-{[(oxan-3-yl)amino]methyl}pyrrolidin-1-yl)-1,2,4-triazin-6-yl]-5-(1H-pyrazol-4-yl)phenol]: no less than 7.00.
The same measure for `Oc1cc(-c2cn[nH]c2)ccc1-c1cnc(N2CCC(CNC3CC4CCC(C3)O4)C2)nn1` (stereo not drawn) [Cpd 405, 2-[3-(3-{[(8-oxabicyclo[3.2.1]octan-3-yl)amino]methyl}pyrrolidin-1-yl)-1,2,4-triazin-6-yl]-5-(1H-pyrazol-4-yl)phenol]: no less than 7.00; for `Cn1cc(-c2ccc(-c3cnc(N4CC[C@@H](NC5CCC5)C4)nn3)c(O)c2)cn1` [Cpd 406, 2-{3-[(3R)-3-(cyclobutylamino)pyrrolidin-1-yl]-1,2,4-triazin-6-yl}-5-(1-methyl-1H-pyrazol-4-yl)phenol]: no less than 7.00; for `Cn1cc(-c2ccc(-c3cnc(N4CC[C@H](NC5CCC5)C4)nn3)c(O)c2)cn1` [Cpd 407, 2-{3-[(3S)-3-(cyclobutylamino)pyrrolidin-1-yl]-1,2,4-triazin-6-yl}-5-(1-methyl-1H-pyrazol-4-yl)phenol]: no less than 7.00.
In turn, `CN(c1ncc(-c2ccc(-c3cnn(C)c3)cc2O)nn1)[C@H]1C[C@]2(C)CC[C@](C)(C1)N2` [Cpd 408] had a negative-log IC50 (pIC50) of no less than 7.00.
Turning to `Oc1cc(-c2cn[nH]c2)ccc1-c1cnc(N2CCC(NC3CCC(F)(F)C3)C2)nn1` (stereo not drawn) [Cpd 409, 2-(3-{3-[(3,3-difluorocyclopentyl)amino]pyrrolidin-1-yl}-1,2,4-triazin-6-yl)-5-(1H-pyrazol-4-yl)phenol], the pIC50 is no less than 7.00.
With `CN(C)CC1CCN(c2ncc(-c3ccc(-c4cn[nH]c4)cc3O)nn2)C1` (stereo not drawn) [Cpd 410, 2-(3-{3-[(dimethylamino)methyl]pyrrolidin-1-yl}-1,2,4-triazin-6-yl)-5-(1H-pyrazol-4-yl)phenol], the negative logarithm of the IC50 (pIC50) was no less than 7.00.
Take `CN(c1cnc(-c2ccc(-c3ccncn3)cc2O)nn1)C1CC(C)(C)NC(C)(C)C1` [Cpd 411, 2-{6-[methyl(2,2,6,6-tetramethylpiperidin-4-yl)amino]-1,2,4-triazin-3-yl}-5-(pyrimidin-4-yl)phenol]: the pIC50 is no less than 7.00.
Consider `CN(c1cnc(-c2ccc(-c3cnccn3)cc2O)nn1)C1CC(C)(C)NC(C)(C)C1` [Cpd 412, 2-{6-[methyl(2,2,6,6-tetramethylpiperidin-4-yl)amino]-1,2,4-triazin-3-yl}-5-(pyrazin-2-yl)phenol], for which the negative-log IC50 (pIC50) was no less than 7.00.
As for `CNCC1CCN(c2ncc(-c3ccc(-c4cn[nH]c4)cc3O)nn2)C1` (stereo not drawn) [Cpd 413, 2-(3-{3-[(methylamino)methyl]pyrrolidin-1-yl}-1,2,4-triazin-6-yl)-5-(1H-pyrazol-4-yl)phenol], the figure is no less than 7.00; as for `CC(C)NC(C)C1CCN(c2ncc(-c3ccc(-c4cn[nH]c4)cc3O)nn2)C1` (stereo not drawn) [Cpd 414, 2-[3-(3-{1-[(propan-2-yl)amino]ethyl}pyrrolidin-1-yl)-1,2,4-triazin-6-yl]-5-(1H-pyrazol-4-yl)phenol], no less than 7.00; as for `Oc1cc(-c2cn[nH]c2)ccc1-c1cnc(N2CCC(CNC3CCC3)C2)nn1` (stereo not drawn) [Cpd 415, 2-(3-{3-[(cyclobutylamino)methyl]pyrrolidin-1-yl}-1,2,4-triazin-6-yl)-5-(1H-pyrazol-4-yl)phenol], no less than 7.00.
For `Cn1cc(-c2ccc(-c3cnc(N4CCC(CNC5CCC5)C4)nn3)c(O)c2)cn1` (stereo not drawn) [Cpd 416, 2-(3-{3-[(cyclobutylamino)methyl}pyrrolidin-1-yl}-1,2,4-triazin-6-yl)-5-(1-methyl-1H-pyrazol-4-yl)phenol], the negative logarithm of the IC50 (pIC50) was no less than 7.00.
As for `CN(c1ncc(-c2ccc(-n3nccn3)cc2O)nn1)[C@H]1C[C@]2(C)CC[C@](C)(C1)N2` [Cpd 417], the figure is no less than 7.00.
Compound `CC(C)(C)NC1CCN(c2ncc(-c3ccc(-c4cn[nH]c4)c(F)c3O)nn2)C1` (stereo not drawn) [Cpd 418, 6-{3-[3-(tert-butylamino)pyrrolidin-1-yl]-1,2,4-triazin-6-yl}-2-fluoro-3-(1H-pyrazol-4-yl)phenol] had a negative-log IC50 (pIC50) of no less than 7.00.
`CC1(C)CC(Oc2cnc(-c3ccc(-c4cn[nH]c4)cc3O)nn2)CC(C)(C)N1` [Cpd 419, 5-(1H-pyrazol-4-yl)-2-{6-[(2,2,6,6-tetramethylpiperidin-4-yl)oxy]-1,2,4-triazin-3-yl}phenol]: the negative logarithm of the IC50 (pIC50) was no less than 7.00.
The compound `Oc1cc(-c2cn[nH]c2)ccc1-c1cnc(N2CCC(NC3CCC(F)C3)C2)nn1` (stereo not drawn) [Cpd 420, 2-(3-{3-[(3-fluorocyclopentyl)amino]pyrrolidin-1-yl}-1,2,4-triazin-6-yl)-5-(1H-pyrazol-4-yl)phenol] showed a negative logarithm of the IC50 (pIC50) of no less than 7.00.
